Results as given in patent US6350742B1, “Compositions and methods for treating infections of the ear” (Carter-Wallace, Inc., priority 1998, dated 2002).

Experiments:
mice = conditions: cited from earlier work
[1] = stability in the solid state; assay type: physicochemical; conditions: stored at ambient conditions
[2] = tested on: antibiotic resistant strains of H.pylori, staphylococci, streptococci, enterococci; assay: activity against antibiotic resistant bacteria; conditions: enterococci and other bacterial and nosocomial infections
[3] = cited from earlier work
[4] = apparent partition coefficient between octanol and water; assay type: physicochemical; conditions: water buffered at pH 7.2
[5] = stability in aqueous solution; assay type: physicochemical; conditions: pre-packed and stored
[6] = solubility in aqueous solutions and organic solvents; assay type: physicochemical
[7] = tested on: microbiota indigenous to the human ear; assay: activity against microbiota of the ear
[8] = pH of a saturated solution in deionized water; assay type: physicochemical

O=S1(=O)CCN(CN2CCS(=O)(=O)NC2)CN1 [Taurolidine, 4,4′-methylenebis (tetrahydro-1,2,4-thiadiazine)-1,1,1′,1′ tetraoxide]
teratogenicity (mice): non-teratogenic
stability in the solid state [1]: acceptable stability in the solid state
effect on antibiotic resistant strains [2]: destroys antibiotic resistant strains
cumulative dose shown to be safe and well tolerated ([3]; cumulative doses): exceeding 300 g
systemic dose shown to be safe and well tolerated ([3]; systemic doses): exceeding 40 g/day
apparent partition coefficient between octanol and water [4]: approximately 0.13
stability in aqueous solution [5]: stored over relatively long periods
solubility ([6]; CHCl3): insoluble
solubility ([6]; Dilute HCl): soluble
solubility ([6]; Dilute NaOH): soluble
solubility ([6]; EtOH): sparingly soluble
solubility ([6]; Water, 20° C.): 1% at 20 °C
effect on growth of microbiota indigenous to the human ear [7]: eradicates or controls the growth
pH of saturated solution [8]: 7.4
